Test results reported in patent publication US9839648B2, “Combined anti-acid-fast bacterial agent, screening method for anti-acid-fast bacterial agents, and activity inhibitor of WecA or ortholog thereof” (MICROBIAL CHEMISTRY RESEARCH FOUNDATION, priority 2013, dated 2017).
Values after ≈ are worked out from the molar mass of the structure shown.

Experiments:
[1] = system: B. subtilis 168 (parent strain); experiment: MIC by microbroth dilution method, parent strain
[2] = system: B. subtilis CPZB-resistant strain; experiment: MIC by microbroth dilution method, CPZB-resistant strain
B. subtilis 168/pHYcatA = experiment: MIC by microbroth dilution method, control strain with pHYcat
[3] = system: B. subtilis 168/pHYcat-mraY; experiment: MIC by microbroth dilution method, mraY highly expressing strain
[4] = system: B. subtilis 168/pHYcat-tagO; experiment: MIC by microbroth dilution method, tagO highly expressing strain
[5] = system: Mycobacterium tuberculosis H37Rv; experiment: MIC by agar dilution method (Mycobacteria); format: cell-based; conditions: 7H10 agar, 37° C., 2 to 14 days
Method: The MIC for Mycobacteria was measured by an agar dilution method.

Mycobacterium bovis BCG = experiment: microbe, parasite or virus in culture; format: cell-based; conditions: Mycobacterium tuberculosis variant bovis BCG
Bacillus subtilis PCI219 = experiment: MIC by agar dilution method (other than Mycobacteria); format: cell-based; conditions: Mueller-Hinton agar, 37° C., 18 hours
Bacillus subtilis 168 = experiment: as above; format: cell-based; conditions: Mueller-Hinton agar, 37° C., 18 hours
[6] = system: Staphylococcus aureus FDA209P; experiment: as above; format: cell-based
[7] = system: Enterococcus faecalis JCM 5803; experiment: as above; format: cell-based; conditions: JCM5803, Mueller-Hinton agar, 37° C., 18 hours
[8] = system: Streptococcus pneumoniae S-223; experiment: as above; format: cell-based
Escherichia coli K-12 = experiment: as above; format: cell-based; conditions: K12, Mueller-Hinton agar, 37° C., 18 hours
B. subtilis 168 strain = format: cell-based, Bacillus subtilis; conditions: [14C(U)]glycerol, FIGS. 7A, 7C
TagO = molecular target: T1, TagO (Bacillus subtilis, UniProt O34753); experiment: Measurement of TagO activity with disruption liquid of 168/pHYcat-tagO cells; format: biochemical; conditions: compared with caprazamycin B, tunicamycin, vancomycin, levofloxacin; FIG. 9A
T1 construct: using disruption liquids of bacterial cells of the 168/pHYcat-mraY strain and the 168/pHYcat-tagO highly expressing these enzymes; expressed in transfected cells; host or cells: Bacillus subtilis 168 carrying plasmid pHYcat-tagO; supernatant of sonicated cells
Method: The activities of enzymes MraY and TagO were measured in the following manner using disruption liquids of bacterial cells of the 168/pHYcat-mraY strain and the 168/pHYcat-tagO highly expressing these enzymes and produced in Test Example 3-2.
As a control, tunicamycin, vancomycin and levofloxacin were tested similarly.
The bacterial cells were cultured in an LB medium until logarithmic growth phase (OD600=0.4) and then collected through centrifuging (5,000 rpm, 10 min), followed by washing twice with a TMS buffer (50 mM Tris-HCl (pH 7.5), 625 mM sucrose, 10 mM MgCl2, 5 mM 3-mercapto-1,2-propanediol, 1 mM PMSF).
Next, the precipitate was re-suspended in a TMS buffer having a volume 1/40 the initial volume, and the bacterial cells were disrupted through probe sonication (where the following procedure was repeated 10 times on ice: disrupting them for 30 sec and leaving them stand still for 30 sec). […]
The TagO activity was measured by allowing 0.02 mL of the following reaction mixture to react at 30° C. for 1 hour.
Next, the lower layer containing the reaction product was analyzed through thin-layer chromatography (TLC, using as a developing solvent chloroform:methanol:water:concentrated aqueous ammonia=65:35:4:4) and autoradiography, to thereby calculate the enzymatic activity of TagO as a rate with respect to that of the control. […]

[9] = molecular target: WecA of Mycobacterium smegmatis (Mycolicibacterium smegmatis, UniProt A0R211); experiment: biochemical
Staph. aureus MRSA No. 5 = experiment: MIC by agar dilution method (other than Mycobacteria)
[10] = system: Ent. faecalis NCTC12203 (VRE); experiment: as above; conditions: Enterococcus faecalis, 18 h
Str. pneumoniae CR-2 = experiment: as above

Q: For `CN[C@H](CC(C)C)C(=O)N[C@H]1C(=O)N[C@@H](CC(N)=O)C(=O)N[C@H]2C(=O)N[C@H]3C(=O)N[C@H](C(=O)N[C@H](C(=O)O)c4cc(O)cc(O)c4-c4cc3ccc4O)[C@H](O)c3ccc(c(Cl)c3)Oc3cc2cc(c3O[C@@H]2O[C@H](CO)[C@@H](O)[C@H](O)[C@H]2O[C@H]2C[C@](C)(N)[C@H](O)[C@H](C)O2)Oc2ccc(cc2Cl)[C@H]1O` [vancomycin, reference compound], which MIC ([1]; Bacillus subtilis, 16 h) is on record?
A: The MIC was 0.25 µg/mL (≈ 0.173 µM).

Q: And the MIC ([2]; Bacillus subtilis, 16 h)?
A: Its MIC is 0.25 µg/mL (≈ 0.173 µM).

Q: What about the MIC (B. subtilis 168/pHYcatA; Bacillus subtilis, 168/PHYCATA) of the same molecule?
A: Its MIC is 0.5 µg/mL (≈ 0.345 µM).

Q: And the MIC ([3]; Bacillus subtilis)?
A: Its MIC is 0.5 µg/mL (≈ 0.345 µM).

Q: And the MIC ([4]; Bacillus subtilis)?
A: Its MIC is 1 µg/mL (≈ 0.69 µM).

Q: Which MIC [5] does the source give for `CCCCc1ccc(NC(=O)C2=CCN(C)[C@@H]([C@H](O[C@@H]3O[C@H](CN)C(O)C3O)[C@H]3O[C@@H](n4ccc(=O)[nH]c4=O)C(O)C3O)C(=O)N2C)cc1` (stereo partly drawn) [CPZEN-45] here?
A: The MIC was 1.56 µg/mL (≈ 2.27 µM).

Q: And the MIC (Mycobacterium bovis BCG)?
A: Its MIC is 2 µg/mL (≈ 2.9 µM).

Q: What about the MIC (Bacillus subtilis PCI219) of the same molecule?
A: The MIC was 1.56 µg/mL (≈ 2.27 µM).

Q: What about the MIC (Bacillus subtilis 168) of the same molecule?
A: The MIC was 4 µg/mL (≈ 5.81 µM).

Q: What about the MIC ([6]; Staphylococcus aureus FDA209P, agar dilution, Mueller-Hinton agar, 37° C., 18 hours) of the same molecule?
A: The MIC was 12.5 µg/mL (≈ 18.1 µM).

Q: And the “antibacterial activity (in words)” value ([6]; Staphylococcus aureus FDA209 strain, WecA or ortholog not essential for growth)?
A: The value was “no antibacterial activity”.

Q: What about the MIC [7] of the same molecule?
A: The MIC was 8 µg/mL (≈ 11.6 µM).

Q: And the MIC ([8]; S223, Streptococcus pneumoniae S-223, agar dilution, Mueller-Hinton agar, 37° C., 18 hours)?
A: Its MIC is 16 µg/mL (≈ 23.2 µM).

Q: What about the “antibacterial activity (in words)” value ([8]; Streptococcus pneumoniae S-223 strain, has no WecA or ortholog) of the same molecule?
A: The value was “no antibacterial activity”.

Q: And the MIC (Escherichia coli K-12)?
A: Its MIC is over 100 µg/mL.

Q: What about the “incorporation into bacterial cells of glycerol (synthesis of teichoic acid)” value (B. subtilis 168 strain) of the same molecule?
A: Its value is “inhibited”.

Q: What about the “enzymatic activity of TagO (inhibition)” value (TagO) of the same molecule?
A: The value was “the most strongly”.

Q: And the IC50 [9]?
A: The IC50 was 6.39 nM.

Q: What about the MIC ([1]; Bacillus subtilis, 16 h) of the same molecule?
A: The MIC was 4 µg/mL (≈ 5.81 µM).

Q: What about the “antibacterial activity (in words)” value (Staph. aureus MRSA No. 5; Staph. aureus MRSA No. 5 strain, WecA or ortholog not essential for growth) of the same molecule?
A: Its value is “no antibacterial activity”.

Q: What about the MIC (Staph. aureus MRSA No. 5; Staphylococcus aureus, MRSA, 18 h) of the same molecule?
A: Its MIC is 100 µg/mL (≈ 145 µM).

Q: And the MIC [10]?
A: The MIC was 8 µg/mL (≈ 11.6 µM).

Q: What about the “antibacterial activity (in words)” value (Str. pneumoniae CR-2; Str. pneumoniae CR-2 strain, has no WecA or ortholog) of the same molecule?
A: The value was “no antibacterial activity”.

Q: What about the MIC (Str. pneumoniae CR-2; Streptococcus pneumoniae, CR2, 18 h) of the same molecule?
A: The MIC was 128 µg/mL (≈ 186 µM).

Q: What about the MIC ([2]; Bacillus subtilis, 16 h) of the same molecule?
A: The MIC was 4 µg/mL (≈ 5.81 µM).

Q: And the MIC (B. subtilis 168/pHYcatA; Bacillus subtilis, 168/PHYCATA)?
A: The MIC was 8 µg/mL (≈ 11.6 µM).

Q: What about the MIC ([3]; Bacillus subtilis) of the same molecule?
A: The MIC was 8 µg/mL (≈ 11.6 µM).

Q: What about the MIC ([4]; Bacillus subtilis) of the same molecule?
A: Its MIC is 64 µg/mL (≈ 92.9 µM).

Q: How did the MIC ([1]; B. subtilis 168 (parent strain), microbroth dilution, LB medium, 37° C., 16 hours) turn out when tunicamycin [reference compound] was run?
A: Its MIC is 0.25 µg/mL.

Q: And the MIC ([2]; B. subtilis CPZB-resistant strain, microbroth dilution, LB medium, 37° C., 16 hours)?
A: The MIC was 4 µg/mL.

Q: What about the MIC (B. subtilis 168/pHYcatA; B. subtilis 168/pHYcatA (control strain), microbroth dilution, LB medium) of the same molecule?
A: Its MIC is 1 µg/mL.

Q: And the MIC ([3]; B. subtilis 168/pHYcat-mraY (mraY highly expressing), microbroth dilution, LB medium)?
A: The MIC was 1 µg/mL.

Q: And the MIC ([4]; B. subtilis 168/pHYcat-tagO (tagO highly expressing), microbroth dilution, LB medium)?
A: The MIC was 16 µg/mL.
